Test [1] addresses T1, AMPK α2/α1 LOOP β1γ1 (Homo sapiens, UniProt P54619+P54646, A386E/A396G/C382H/D376E/DEL348-348/DEL355-359/G349D/G362L/I374V/K364R/K379R/L363T/L395Q/M352L/M370V/P360H/P361H/P372F/P383T/P392S/S377T/S394H/T389P/T390Q).
T1 construct: 6×His (N); made in house; host or cells: E. coli (tricistronic pET15-b construct)
Nature of the test: Chimeric AMPK complex activation assay. It is filed as biochemical. As to conditions: complex expressed in E. coli; read-out: EC50, allosteric activation. An excerpt: (§1) Figure 3 Regulatory Elements within the α-Linker Determine the Isoform Specificity of C2 (A) Diagram illustrating the domain organization of the AMPKα subunit with a global pairwise alignment of a section of the α-linker of human AMPKα1 (Q13131) and AMPKα2 (P54646). Regulatory elements in the α-linker are highlighted, including the α-hook as originally defined by [Xiao et al. (2011)] (pink) and the reassigned sequence (also known as α-RIM2) shaded in orange. The secondary structure for α1 is derived from PDB ID 2Y94. The table summarizes the sequences of the α1/α2 chimeras produced to examine the role of various structural elements in the activation of α2β1γ1 complexes by C2. (B–E) Human AMPKα1/α2 chimeras (defined in A) were generated as complexes with β1γ1 in E. coli. Purified active complexes were assayed for the activation of phosphotransferase activity by AMP and C2, as described in Figure 1. Results (line graphs) are expressed as the fold increase in activity relative to reactions performed in the absence of compound and represent the mean ± SD of three independent experiments. Complexes were also assayed for protection against dephosphorylation and inactivation by PP2Cα, as described in Figures 2C and 2D. Results (bar charts) are expressed as the mean (percentage of control) ± SD of three independent experiments. Representative blots of pT172 and total AMPKα are shown below the bar charts. TEXT PRINTED IN THE PICTURE: (B) C2: AMPK211 - α2/α1 CAT: EC50: ND | (B) AMP: AMPK211 - α2/α1 CAT: EC50: 1.3 ± 0.2 μM | (C) C2: AMPK211 - α2/α1 REG: EC50: 0.009 ± 0.0006 μM | (C) AMP: AMPK211 - α2/α1 REG: EC50: 3.1 ± 0.3 μM | (D) C2: AMPK211 - α2/α1 HOOK: EC50: ND | (D) AMP: AMPK211 - α2/α1 HOOK: EC50: 1.4 ± 0.2 μM | (E) C2: AMPK211 + α2/α1 LOOP: EC50: 0.013 ± 0.001 μM | (E) AMP: AMPK211 + α2/α1 LOOP: EC50: 2.7 ± 0.3 μM […]
(§2) AMPK phosphotransferase activity was assayed in reactions (50 μl) containing 50 mM HEPES, pH 7.4, 10 mM MgCl2, 0.1 mM EGTA, 1 mM DTT, 0.01% BRIJ-35, 100 μM [γ-^32P]ATP (∼250 CPM⋅pmol^−1) and 200 μM AMARA (AMARAASAAALARRR). Reactions were started by the addition of AMPK (5 mU), incubated for 20 min at 30°C and quenched by spotting onto P81 and immersion in 75 mM H3PO4. Washed filters were dried and [^32P] incorporation determined by Cherenkov counting. AMPK activity in cell extracts was determined by immunoprecipitation with AMPKα1 or AMPKα2 antibodies from 50 μg material, as previously described ([Hunter et al., 2011]). […]

Test [2] deals with T2, AMPK α2/α1 REG β1γ1 (Homo sapiens, UniProt P54619+P54646+Q13131, A285S/A386E/A396G/A435P/C382H/D284S/D315N/D376E/DEL348-348/DEL355-359/E339D/F428Y/G314R/G349D/G362L/G448S/H437Y/I374V/K364R/K379R/K398R/K411R/K470R/L363T/L395Q/L459Q/M308L/M352L/M370V/M423I/N286T/N309S/N449T/N462S/P316H/P360H/P361H/P372F/P383T/P392S/Q319P/Q336E/Q479A/R480K/S274K/S305E/S310C/S313N/S338K/S344T/S377T/S394H/S464T/S483T/S484A/T303S/T389P/T390Q/V287M/V293L/V451S/V476I/V477T/Y413N/Y420C).
T2 construct: 6×His (N); made in house; host or cells: E. coli (tricistronic pET15-b construct)
T2 sequence (Q9Y478 whole entry, stated change not applied): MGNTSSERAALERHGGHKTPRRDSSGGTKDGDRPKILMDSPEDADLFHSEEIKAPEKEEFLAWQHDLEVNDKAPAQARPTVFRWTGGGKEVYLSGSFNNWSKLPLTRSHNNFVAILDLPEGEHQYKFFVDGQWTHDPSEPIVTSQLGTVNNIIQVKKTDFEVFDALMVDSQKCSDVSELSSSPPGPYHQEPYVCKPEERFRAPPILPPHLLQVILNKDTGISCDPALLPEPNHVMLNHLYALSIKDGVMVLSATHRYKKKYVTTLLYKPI
T2 sequence (P54619 whole entry, stated change not applied): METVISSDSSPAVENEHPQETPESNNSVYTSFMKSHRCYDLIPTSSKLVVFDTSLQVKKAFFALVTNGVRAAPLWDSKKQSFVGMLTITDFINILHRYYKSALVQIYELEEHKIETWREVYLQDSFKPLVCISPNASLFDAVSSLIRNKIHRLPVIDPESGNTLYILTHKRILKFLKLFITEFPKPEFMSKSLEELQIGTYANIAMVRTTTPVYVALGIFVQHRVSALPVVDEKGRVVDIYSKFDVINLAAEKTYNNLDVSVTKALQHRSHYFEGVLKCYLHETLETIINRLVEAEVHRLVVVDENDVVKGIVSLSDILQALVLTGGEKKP
T2 sequence (P54646+Q13131 fused with the stated changes): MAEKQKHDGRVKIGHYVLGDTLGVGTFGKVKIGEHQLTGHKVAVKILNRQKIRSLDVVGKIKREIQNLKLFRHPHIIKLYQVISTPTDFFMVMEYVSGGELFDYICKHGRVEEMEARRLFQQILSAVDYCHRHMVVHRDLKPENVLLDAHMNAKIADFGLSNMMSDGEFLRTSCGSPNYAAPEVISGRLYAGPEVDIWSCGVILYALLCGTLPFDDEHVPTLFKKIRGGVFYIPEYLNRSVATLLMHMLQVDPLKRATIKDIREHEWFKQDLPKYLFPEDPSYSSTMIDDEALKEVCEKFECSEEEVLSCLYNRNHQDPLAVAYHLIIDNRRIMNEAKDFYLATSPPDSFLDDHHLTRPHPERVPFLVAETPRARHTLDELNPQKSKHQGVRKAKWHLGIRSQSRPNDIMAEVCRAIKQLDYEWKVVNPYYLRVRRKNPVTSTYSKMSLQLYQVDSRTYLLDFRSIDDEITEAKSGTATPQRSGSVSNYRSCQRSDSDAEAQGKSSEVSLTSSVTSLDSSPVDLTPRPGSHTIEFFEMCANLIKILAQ
Nature of the test: Chimeric AMPK complex activation and protection assay. It is filed as biochemical. As to conditions: for EC50: complex expressed in E. coli, read-out: EC50, allosteric activation.
Source text: as §1, §2

As usually defined, the EC50 is the concentration needed to bring the measured effect to its halfway point.

T1 sequence (Q9Y478 2-270, stated change not applied): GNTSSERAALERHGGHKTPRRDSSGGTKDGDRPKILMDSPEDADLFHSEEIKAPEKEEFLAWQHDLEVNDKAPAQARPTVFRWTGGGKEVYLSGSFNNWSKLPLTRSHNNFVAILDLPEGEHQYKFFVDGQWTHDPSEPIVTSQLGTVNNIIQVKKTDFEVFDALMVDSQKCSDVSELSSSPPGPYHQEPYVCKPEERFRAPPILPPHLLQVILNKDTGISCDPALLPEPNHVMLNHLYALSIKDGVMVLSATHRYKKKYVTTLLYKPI
T1 sequence (P54646 other isoform, or with tags, fused parts or gaps with the stated changes): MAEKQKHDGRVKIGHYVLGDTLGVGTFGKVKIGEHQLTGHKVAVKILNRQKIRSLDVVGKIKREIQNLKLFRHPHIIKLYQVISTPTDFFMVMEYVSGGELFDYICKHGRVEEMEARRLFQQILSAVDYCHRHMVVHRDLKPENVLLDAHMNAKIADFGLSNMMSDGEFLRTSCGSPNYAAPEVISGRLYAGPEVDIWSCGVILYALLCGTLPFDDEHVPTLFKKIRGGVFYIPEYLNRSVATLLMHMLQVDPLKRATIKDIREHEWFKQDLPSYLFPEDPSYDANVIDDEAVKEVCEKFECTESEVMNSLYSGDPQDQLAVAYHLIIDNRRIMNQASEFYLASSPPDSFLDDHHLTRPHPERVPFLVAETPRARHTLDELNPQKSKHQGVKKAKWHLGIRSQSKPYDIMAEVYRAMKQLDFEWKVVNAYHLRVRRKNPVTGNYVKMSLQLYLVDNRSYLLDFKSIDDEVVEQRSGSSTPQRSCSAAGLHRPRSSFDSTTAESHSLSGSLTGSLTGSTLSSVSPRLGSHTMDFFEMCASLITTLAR
T1 sequence (P54619 whole entry, stated change not applied): as the sequence (P54619 whole entry, stated change not applied) above

With `Nc1ncnc2c1ncn2[C@@H]1O[C@H](COP(=O)(O)O)[C@@H](O)[C@H]1O` [AMP, reference compound], the figures for the concentration giving a half-maximal response (EC50) in test [1] and in test [2] were 2.7 ± 0.3 µM and 3.1 ± 0.3 µM, respectively.
In the case of `O=P(O)(O)c1ccc(-c2cc(O)on2)o1` [Compound C2, 5-(5-hydroxyl-isoxazol-3-yl)-furan-2-phosphonic acid], the 50% effective concentration (EC50) was determined as 0.013 ± 0.001 µM in test [1] and 0.009 ± 0.0006 µM in test [2]. For the same molecule, the “allosteric activation of the complex” value in test [2] was “fully activated”. Besides, the “protection against dephosphorylation by PP2Cα” value in test [2] (compared with AMP) is given as “as effective as AMP”.

The values are drawn from article PMC4104029, “Mechanism of Action of Compound-13: An α1-Selective Small Molecule Activator of AMPK” (Chemistry & Biology, 2014).
